Key:
Type in all cases: in vivo, mouse
C57Bl/6 mice [1] = test: Elevated plus maze; conditions: chronic 10 mg/kg/day IP, week 1 of testing
From the text: (§1) See Supplementary Methods for details.
Elevated Plus Maze: The maze was made of acrylonitrile butadiene styrene (ABS) plastic and had two open arms and two close arms that were 30 cm long and 5 cm wide. The center area where the open and close arms meet was 5 cm x 5 cm. The open arms had 2 mm lips at the edges, and the closed arms had 15 cm opaque walls. The maze was elevated 50 cm and surrounded by privacy blinds during the test. The maze was illuminated to 7 lux using red light throughout the test. Each mouse was released in the center of the maze and given 5 min to explore the maze. Duration and frequency in each zone of the maze were recorded using Ethovision (Noldus Information Technology, Wageningen, the Netherlands) tracking software. […]

C57Bl/6 mice [2] = test: Morris water maze; conditions: chronic 10 mg/kg/day IP, weeks 2 and 3 of testing
From the text: as §1
Elevated Plus Maze: The maze was made of acrylonitrile butadiene styrene (ABS) plastic and had two open arms and two close arms that were 30 cm long and 5 cm wide. The center area where the open and close arms meet was 5 cm x 5 cm. The open arms had 2 mm lips at the edges, and the closed arms had 15 cm opaque walls. The maze was elevated 50 cm and surrounded by privacy blinds during the test. The maze was illuminated to 7 lux using red light throughout the test. Each mouse was released in the center of the maze and given 5 min to explore the maze. Duration and frequency in each zone of the maze were recorded using Ethovision (Noldus Information Technology, Wageningen, the Netherlands) tracking software.
Y Maze Spontaneous Alternation: The Y maze is made of plastic with 3 arms in a "Y" shape.
The arms are labelled as Arm A, B, and C; Arm A is 20.32 cm (L) x 5 cm (W) 12.7 cm (H), Arm B and C are 15.24 cm (L) x 5 cm (W), and 12.7 cm (H). The test is based on the willingness of rodents to explore a novel environment and designed to measure spontaneous alternations in rodents. Each mouse was placed in the center of the maze facing Arm B. The first entry was excluded from data analysis because the animals were led to the initial arm entry by the experimenter. Using an overhead camera, the number of arm entries and alternations were recorded for 5 minutes. An arm entry is when all four paws enter into a new arm of the maze.
The apparatus was cleaned with 1% Virkon. Parameters recorded were % alternation and the total number of entries into arms. The Y maze test was conducted after two weeks of exposure […]
A ping pong ball was erected from the submerged platform and the mice were given two trials of Visible Platform Training to ensure they lacked gross sensorimotor deficit and visual impairment. The escape latency, distance moved, duration in zones, and velocity of the animals were recorded using Ethovision XT (Noldus Information Technology, Wageningen, Netherlands). […]

C57Bl/6 mice [3] = test: Fear conditioning; conditions: chronic 10 mg/kg/day IP, week 4 of testing
From the text: See Supplementary Methods for details. […]
Fear Conditioning: Coulbourn Instruments (Holliston, MA, USA) fear conditioning system and FreezeFrame software were used for analysis. The experiment consisted of 1 day of training, 1 day of contextual testing, and 1 day of cued testing. The training and contextual testing chambers were identical with similar context. The walls were made of aluminum. The floor was […]
a gray metal grid through which the US was delivered, and the chambers used yellow color house light and were scented with mint extract to produce a unique smell in the chambers. The chambers were cleaned with a 10% simple green solution (Sunshine Makers, Inc.) between each mouse. The cued testing chambers were circular-shaped, made of plastic, used blue color house light, and were scented with vanilla extract to create a unique context different from training and contextual testing. This chamber was cleaned with 70% ethanol between each mouse. Both chambers were mounted within specially designed sound-attenuating chambers.
Each chamber had speakers mounted on the wall and included an exhaust fan and camera. On Day 1 training, mice were placed individually into a training chamber for 200 seconds. A tone (20 seconds, 80 dB, 2 kHz) was presented to the mouse, followed by an electrical shock (intensity 0.5 mA, 2 seconds) 18 seconds after the end of the tone (Misane et al. 2005, Burman 2014, Lugo et al. 2014). This procedure was repeated two times with a 60 second interval from the end of the shock to the next tone. The mouse was removed from the chamber and returned to the home cage 60 seconds after the last shock. On Day 2, the mice were placed back into the training chamber without any tone or shock for contextual memory testing for 15 minutes. On Day 3, the mice were placed into the cued testing chamber with just tones (20 seconds, 80dB, 2 kHz) presented 3 times with 80 second intervals after 200 seconds of habituation. Overall, the mice received the tone and shock pairings only on the training day. An overhead camera was used to record mice freezing behavior. The fear conditioning test was conducted after four weeks of exposure to compounds or vehicle.
We have shown when studying the cognitive enhancement in normal, young control mice, overtraining of the animals will lead to saturation of behavioral learning, making it very difficult to display pharmacological improvements in behavioral paradigms. We therefore chose less training trials per day and less number of training days in the Morris water maze to increase the likelihood of observing drug effects. Likewise, the fear conditioning task, we chose lower shock

SMILES	Time spent in the open arms in the elevated plus maze (C57Bl/6 mice [1])	Learning in the Morris water maze (C57Bl/6 mice [2])	Fear conditioning Day 1, learning of the tone-shock association (C57Bl/6 mice [3])	Fear conditioning Day 2, contextual recall vs vehicle (C57Bl/6 mice [3])	Fear conditioning Day 3, freezing during cued recall or tone presentation vs vehicle (C57Bl/6 mice [3])
C[C@](N)(CCC(=O)O)C(=O)O [(S)-2MeGlu, (S)-2-methylglutamic acid]	no significant effect of treatment	no significant effect of treatment	equivalent learning of the tone-shock association	no significant effect of treatments	no significant differences detected
CC(N)(CCC(N)=O)C(=O)O (racemic) [rac-2MeGln, rac-2-methylglutamine]	no significant effect of treatment	no significant effect of treatment	equivalent learning of the tone-shock association	no significant effect of treatments	no significant differences detected
C[C@@](N)(CCC(=O)O)C(=O)O [(R)-2MeGlu, (R)-2-methylglutamic acid]	no significant effect of treatment	no significant effect of treatment	equivalent learning of the tone-shock association	no significant effect of treatments	no significant differences detected

Reference: PMC8047011, “Enantiomers of 2-methylglutamate and 2-methylglutamine selectively impact mouse brain metabolism and behavior” (Scientific Reports, 2021)
